Reference: US10168342B2, “Lipid probes and uses thereof” (THE SCRIPPS RESEARCH INSTITUTE, priority 2015, dated 2019)
Where two headings read alike, the source gives them in different places.

Assays:
[1] = target: T1, AEA-DA lipid probe targets in Neuro2a cells (Mus musculus, UniProt O88325)
T1 sequence (O88325 22-739): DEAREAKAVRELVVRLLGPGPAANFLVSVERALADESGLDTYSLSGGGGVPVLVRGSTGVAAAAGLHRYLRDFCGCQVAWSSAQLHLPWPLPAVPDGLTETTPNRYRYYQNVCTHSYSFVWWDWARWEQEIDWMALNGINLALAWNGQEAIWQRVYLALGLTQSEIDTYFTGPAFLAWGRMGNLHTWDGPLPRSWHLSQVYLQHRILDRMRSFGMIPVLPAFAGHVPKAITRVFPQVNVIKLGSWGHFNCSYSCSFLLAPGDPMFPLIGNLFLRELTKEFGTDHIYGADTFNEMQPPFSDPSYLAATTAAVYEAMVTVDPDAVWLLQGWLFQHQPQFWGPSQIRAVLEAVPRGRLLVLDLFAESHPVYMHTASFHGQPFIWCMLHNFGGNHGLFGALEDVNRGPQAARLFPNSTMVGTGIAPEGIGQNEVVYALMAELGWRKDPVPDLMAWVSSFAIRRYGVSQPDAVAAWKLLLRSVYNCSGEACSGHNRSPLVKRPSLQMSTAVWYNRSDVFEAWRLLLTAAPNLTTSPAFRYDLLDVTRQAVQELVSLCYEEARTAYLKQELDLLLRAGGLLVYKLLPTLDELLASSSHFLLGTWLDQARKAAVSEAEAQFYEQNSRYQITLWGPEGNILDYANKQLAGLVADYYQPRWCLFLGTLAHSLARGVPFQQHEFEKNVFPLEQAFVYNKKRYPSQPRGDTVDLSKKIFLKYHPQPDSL

[2] = target: T2, AEA-DA lipid probe targets in Neuro2a cells (Mus musculus, UniProt P16014)
T2 sequence (P16014 21-677): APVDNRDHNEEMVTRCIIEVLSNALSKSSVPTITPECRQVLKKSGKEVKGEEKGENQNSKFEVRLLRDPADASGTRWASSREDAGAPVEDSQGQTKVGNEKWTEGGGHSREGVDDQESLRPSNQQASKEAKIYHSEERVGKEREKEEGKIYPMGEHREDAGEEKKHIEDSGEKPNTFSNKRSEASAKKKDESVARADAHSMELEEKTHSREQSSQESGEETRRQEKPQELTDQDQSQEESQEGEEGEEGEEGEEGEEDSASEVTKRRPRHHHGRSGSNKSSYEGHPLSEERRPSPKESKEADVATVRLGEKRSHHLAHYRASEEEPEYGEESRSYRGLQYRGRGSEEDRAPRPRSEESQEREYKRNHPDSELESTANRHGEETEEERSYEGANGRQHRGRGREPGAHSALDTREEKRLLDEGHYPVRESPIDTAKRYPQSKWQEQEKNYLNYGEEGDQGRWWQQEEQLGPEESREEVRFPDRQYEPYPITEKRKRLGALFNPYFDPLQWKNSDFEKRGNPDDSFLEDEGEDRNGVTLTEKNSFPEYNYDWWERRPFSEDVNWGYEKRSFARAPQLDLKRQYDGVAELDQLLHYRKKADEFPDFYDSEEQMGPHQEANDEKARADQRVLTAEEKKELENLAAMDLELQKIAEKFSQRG

[3] = target: AEA-DA lipid probe targets in Neuro2a cells (Mus musculus, UniProt P53994)
[4] = target: T3, AEA-DA lipid probe targets in Neuro2a cells (Mus musculus, UniProt Q60692)
T3 sequence (Q60692 1-238): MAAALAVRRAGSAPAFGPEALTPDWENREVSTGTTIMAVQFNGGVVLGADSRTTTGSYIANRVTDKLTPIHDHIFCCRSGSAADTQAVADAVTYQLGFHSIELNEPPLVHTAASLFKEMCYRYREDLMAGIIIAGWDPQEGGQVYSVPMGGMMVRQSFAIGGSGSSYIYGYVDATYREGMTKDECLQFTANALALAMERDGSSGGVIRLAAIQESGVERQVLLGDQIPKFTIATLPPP

[5] = target: T4, AEA-DA lipid probe targets in Neuro2a cells (Mus musculus, UniProt Q61207); conditions: for SILAC ratio, PSAP (P07602): Neuro2a cells, AEA-DA probe
T4 sequence (Q61207 60-557): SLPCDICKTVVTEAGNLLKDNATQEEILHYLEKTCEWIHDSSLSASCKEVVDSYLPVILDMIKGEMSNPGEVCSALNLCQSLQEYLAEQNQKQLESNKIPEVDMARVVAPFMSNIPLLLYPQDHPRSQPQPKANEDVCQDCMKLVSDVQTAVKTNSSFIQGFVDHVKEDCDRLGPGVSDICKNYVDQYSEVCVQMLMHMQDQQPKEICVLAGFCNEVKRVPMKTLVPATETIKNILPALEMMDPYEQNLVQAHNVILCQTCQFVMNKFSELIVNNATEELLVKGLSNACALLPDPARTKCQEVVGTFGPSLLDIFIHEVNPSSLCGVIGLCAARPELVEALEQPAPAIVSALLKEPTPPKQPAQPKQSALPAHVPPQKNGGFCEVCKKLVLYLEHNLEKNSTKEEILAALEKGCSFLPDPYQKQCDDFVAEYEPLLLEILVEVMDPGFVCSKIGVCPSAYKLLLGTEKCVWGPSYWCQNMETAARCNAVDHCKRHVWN

[6] = target: T5, AEA-DA lipid probe targets in Neuro2a cells (Mus musculus, UniProt Q61425)
T5 sequence (Q61425 13-314): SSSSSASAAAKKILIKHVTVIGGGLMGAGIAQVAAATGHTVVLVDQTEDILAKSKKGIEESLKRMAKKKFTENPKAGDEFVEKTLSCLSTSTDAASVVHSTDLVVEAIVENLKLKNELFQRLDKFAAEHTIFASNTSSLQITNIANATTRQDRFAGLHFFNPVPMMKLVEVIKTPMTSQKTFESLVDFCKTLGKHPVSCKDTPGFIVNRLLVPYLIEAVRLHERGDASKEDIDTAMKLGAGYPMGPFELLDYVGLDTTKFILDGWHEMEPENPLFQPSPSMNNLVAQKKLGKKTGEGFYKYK

AEA-DA lipid probe targets in Neuro2a cells (Mus musculus, UniProt P53994), sequence (P53994 whole entry): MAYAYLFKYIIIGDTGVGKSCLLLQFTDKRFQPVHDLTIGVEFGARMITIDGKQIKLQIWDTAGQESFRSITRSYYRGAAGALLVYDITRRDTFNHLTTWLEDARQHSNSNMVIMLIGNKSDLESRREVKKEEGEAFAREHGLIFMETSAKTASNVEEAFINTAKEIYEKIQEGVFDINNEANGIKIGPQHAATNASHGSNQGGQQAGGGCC

Row | Compound | SILAC ratio Naglu ([1]; competitor 25 μM) | SILAC ratio Chgb ([2]; competitor 25 μM) | SILAC ratio Rab2a ([3]; competitor 25 μM) | SILAC ratio Psmb6 ([4]; competitor 25 μM) | SILAC ratio, PSAP (P07602) ([5]; competitor 25 μM) | SILAC ratio Psap ([5]; competitor 25 μM) | SILAC ratio Hadh ([6]; competitor 25 μM) | other results
1 | CCCCC/C=C\C/C=C\C/C=C\C/C=C\CCCC(=O)NCCO [AEA, anandamide, reference compound] |  |  |  |  |  |  |  | SILAC ratio Naglu ([1]; competitor 200 μM): 1.3; SILAC ratio Chgb ([2]; competitor 200 μM): 1.2; SILAC ratio Rab2a ([3]; competitor 200 μM): 1.3; SILAC ratio Psmb6 ([4]; competitor 200 μM): 1.4; SILAC ratio, PSAP (P07602) ([5]; competitor 200 μM): 1.4; SILAC ratio Psap ([5]; competitor 200 μM): 1.4; SILAC ratio Hadh ([6]; competitor 200 μM): 1.2
2 | O=C(/C=C/c1cccnc1)NCCCCC1CCN(C(=O)c2ccccc2)CC1 [FK-866, reference compound] | 1.3 | 0.9 | 1.2 | 1.4 | 1.0 | 1.0 | 1.2 | 
3 | CN1CCN(C(=O)c2c(-c3ccccc3)c3cc([N+](=O)[O-])ccc3n2C)CC1 [KML110, (1-Methyl-5-nitro-3-phenyl-1H-indol-2-yl)(4-methylpiperazin-1-yl)methanone] | 1.4 | 1.1 | 1.3 | 1.9 |  | 1.3 | 1.2 | 
4 | CN1CCN(C(=O)c2[nH]c3ccc([N+](=O)[O-])cc3c2-c2ccccc2)CC1 [MJN228, (4-Methylpiperazin-1-yl)(5-nitro-3-phenyl-1H-indol-2-yl)methanone] | 1.3 | 0.9 | 1.5 | 1.5 | 1.4 | 1.4 | 1.3 | SILAC ratio Naglu ([1]; competitor 10 μM): 1.4; SILAC ratio Naglu ([1]; competitor 50 μM): 1.9; SILAC ratio Naglu ([1]; competitor 100 μM): 1.7; SILAC ratio Chgb ([2]; competitor 10 μM): 1.2; SILAC ratio Chgb ([2]; competitor 50 μM): 0.4; SILAC ratio Chgb ([2]; competitor 100 μM): 0.4; SILAC ratio Rab2a ([3]; competitor 10 μM): 1.4; SILAC ratio Rab2a ([3]; competitor 50 μM): 1.6; SILAC ratio Rab2a ([3]; competitor 100 μM): 1.6; SILAC ratio Psmb6 ([4]; competitor 10 μM): 1.3; SILAC ratio Psmb6 ([4]; competitor 50 μM): 1.4; SILAC ratio Psmb6 ([4]; competitor 100 μM): 2.5; SILAC ratio Psap ([5]; competitor 10 μM): 1.1; SILAC ratio Psap ([5]; competitor 50 μM): 1.4; SILAC ratio Psap ([5]; competitor 100 μM): 1.6; SILAC ratio Hadh ([6]; competitor 10 μM): 1.3; SILAC ratio Hadh ([6]; competitor 50 μM): 1.1; SILAC ratio Hadh ([6]; competitor 100 μM): 1.3
5 | C=CCN(C)CCCCCCOc1ccc(C(=O)c2ccc(Br)cc2)c(F)c1 [Ro 48-8071, reference compound] | 0.3 | 0.7 | 1.1 | 1.0 | 1.0 | 1.0 | 0.8 | 
